Where two headings read alike, the source gives them in different places.
How the values were obtained:
Type in all cases: cell-based
[1] = system: S. aureus ATCC 29213 (methicillin sensitive); assay: broth microdilution MIC assay, S. aureus ATCC 29213; conditions: Staphylococcus aureus, ATCC 29213 / MSSA; Table 3; S. aureus 29213 (MSSA); read-out: S. aureus 29213 (MSSA) MIC
Experimental: (§1) To determine the ability of test compounds to potentiate the inhibition of the growth of bacterial strains, classic cell-based broth microdilution MIC assays were employed. MIC assays are performed according to CLSI methods except where otherwise noted (CLSI, 2011 and CLSI, 2009). The reference strains S. aureus ATCC 29213 (methicillin sensitive), S. aureus ATCC 33591 (methicillin-resistant), E. coli ATCC 25922 (wild-type/QC strain), P. aeruginosa ATCC 27853 (wild-type/QC strain), and the clinical isolate P. aeruginosa PA 8 were used to determine the ability of the exemplary carbapenem compounds to inhibit bacterial growth. An expanded panel of methicillin resistance S. aureus (MRSA) and Pseudomonas was also used to determine the ability of exemplary carbapenem compounds to inhibit bacterial growth across a broader representation of those species. To determine activity in MRSA and in addition to S. aureus ATCC 33591, S. aureus USA 300, USA 400 and USA 600, some of the most common clones found to cause human infection, were also used. To further gauge the impact on the carbapenem compounds due to various resistance mechanisms in Pseudomonas, the following strains were included: P. aeruginosa 35151 (hyper-permeable strain), P. aeruginosa AmexAB-OprM (an efflux pump knockout), and P. aeruginosa PA 3 (a clinical isolate of reduced carbapenem susceptibility). Briefly, cryo-preserved bacterial cultures of clinical strains are streaked for isolation on appropriate agar medium, in this case Mueller Hinton II agar. Following incubation to allow formation of colonies, these plates are sealed with parafilm and stored refrigerated for up to two weeks. For preparation of assay inocula and to ensure low variability, at least 5 colonies are picked from the agar plates with an inoculating loop and aseptically transferred to a culture tube containing 3 mL of Mueller-Hinton Broth (supplemented with divalent cations to required levels based on Manufacturers' specification). The broth culture is grown for 3-5 hours at 37° C. with shaking at 200 rpm. Meanwhile, 2-fold serial dilutions of test compounds are conducted in a 96 well plate with a final volume of 75 μL per well at 2-fold the final desired concentration. After the dilution plates are set up the growing cultures are then diluted in a cuvette containing MH II broth and the optical density is measured at 600 nm. Inocula are diluted such that 75 μL of this culture in Mueller-Hinton Broth results in a starting bacterial concentration of 5×10^5 CFU/mL when added to the dilution plates. The plates are incubated 16-20 hours at 37° C. The MIC is read visually as the lowest concentration well with no bacterial growth.
(§2) Representative results are shown in Tables 3, 4, and 5 where A represents an MIC>32 μg/mL, B represents an MIC between 8 and 32 μg/mL inclusive, C represents an MIC between 1 and 4 μg/mL inclusive, and D represents an MIC of <1 μg/mL. NT=Not Tested.

[2] = system: S. aureus ATCC 33591 (methicillin-resistant); assay: broth microdilution MIC assay, S. aureus ATCC 33591; conditions: Staphylococcus aureus
Method in brief: (§3)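 Colonies from Mueller Hinton II agar → MH broth (divalent cations supplemented), 37 °C, 200 rpm, 3-5 h → OD600-adjusted to 5×10^5 CFU/mL final → 2-fold serial compound dilutions → 16-20 h, 37 °C → visual MIC.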

[3] = system: E. coli ATCC 25922 (wild-type/QC strain); assay: broth microdilution MIC assay, E. coli ATCC 25922; conditions: Escherichia coli, ATCC25922, E. coli 25922, read-out: E. coli 25922 MIC
Method in brief: as §3

[4] = system: P. aeruginosa ATCC 27853 (wild-type/QC strain); assay: broth microdilution MIC assay, P. aeruginosa ATCC 27853; conditions: Pseudomonas aeruginosa, ATCC27853, P. aeruginosa 27853, read-out: P. aeruginosa 27853 MIC
Method in brief: as §3

[5] = system: clinical isolate P. aeruginosa PA 8; assay: broth microdilution MIC assay, P. aeruginosa PA 8; conditions: Pseudomonas aeruginosa, P. aeruginosa PA8
Method in brief: as §3

[6] = system: S. aureus USA 300; assay: broth microdilution MIC assay, S. aureus USA 300; conditions: Staphylococcus aureus; Table 4; S. aureus USA300; read-out: S. aureus USA300 MIC
Method in brief: as §3

[7] = system: S. aureus USA400; assay: broth microdilution MIC assay, S. aureus USA 400; conditions: Staphylococcus aureus, Table 4
Experimental: as §1, §2

[8] = system: P. aeruginosa PA 3 (a clinical isolate of reduced carbapenem susceptibility); assay: broth microdilution MIC assay, P. aeruginosa PA 3; conditions: Pseudomonas aeruginosa; Table 5; P. aeruginosa PA3
Experimental: as §1, §2

[9] = system: S. aureus USA600; assay: broth microdilution MIC assay, S. aureus USA 600; conditions: Staphylococcus aureus; Table 4; S. aureus USA600; read-out: S. aureus USA600 MIC
Method in brief: as §3

[10] = system: P. aeruginosa 35151 (hyper-permeable strain); assay: broth microdilution MIC assay, P. aeruginosa 35151; conditions: Pseudomonas aeruginosa, read-out: P. aeruginosa 35151 MIC
Method in brief: as §3

[11] = system: P. aeruginosa ΔmexAB-OprM (an efflux pump knockout); assay: broth microdilution MIC assay, P. aeruginosa ΔmexAB-OprM; conditions: Pseudomonas aeruginosa, 20 h, read-out: P. aeruginosa ΔmexAB-OprM MIC
Method in brief: as §3

[12] = ATCC 33591 / MRSA, Table 3, S. aureus 33591 (MRSA), read-out: S. aureus 33591 (MRSA) MIC
[13] = ATCC33591, Table 4, S. aureus 33591, read-out: S. aureus 33591 MIC

Compound | MIC [1] [µg/mL] | MIC [2, 12] [µg/mL] | MIC ([3]; Table 3) [µg/mL] | MIC ([4]; Table 3) [µg/mL] | MIC ([5]; Table 3) [µg/mL] | MIC [2, 13] [µg/mL] | MIC ([3]; Table 4) [µg/mL] | MIC ([4]; Table 5) [µg/mL] | MIC ([5]; Table 5) [µg/mL] | MIC [6] [µg/mL] | MIC [7] [µg/mL] | MIC [8] [µg/mL] | MIC [9] [µg/mL] | MIC [10] [µg/mL] | MIC [11] [µg/mL]
CNCc1ccc(CN2CC[C@@H](SC3=C(C(=O)O)N4C(=O)[C@H]([C@@H](C)O)[C@H]4[C@H]3C)C2)cc1 [Example 19, (4R,5S,6S)-6-((R)-1-hydroxyethyl)-4-methyl-3-(((R)-1-(4-((methylamino)methyl)benzyl)pyrrolidin-3-yl)thio)-7-oxo-1-azabicyclo[3.2.0]hept-2-ene-2-carboxylic acid] | 1 to 4 | 8 to 32 | < 1 | 1 to 4 | 1 to 4 | – | – | – | – | – | – | – | – | – | –
CN[C@H]1CC[C@@H](CN2CC[C@@H](SC3=C(C(=O)O)N4C(=O)[C@H]([C@@H](C)O)[C@H]4[C@H]3C)C2)CC1 [Example 22, (4R,5S,6S)-6-((R)-1-hydroxyethyl)-4-methyl-3-(((R)-1-(((1s,4S)-4-(methylamino)cyclohexyl)methyl)pyrrolidin-3-yl)thio)-7-oxo-1-azabicyclo[3.2.0]hept-2-ene-2-carboxylic acid] | 1 to 4 | 8 to 32 | < 1 | 1 to 4 | 1 to 4 | – | – | – | – | – | – | – | – | – | –
C[C@@H](O)[C@H]1C(=O)N2C(C(=O)O)=C(S[C@@H]3CCN([C@H]4CC[C@H](N)CC4)C3)[C@H](C)[C@H]12 [Example 24, (4R,5S,6S)-3-(((R)-1-((1s,4S)-4-aminocyclohexyl)pyrrolidin-3-yl)thio)-6-((R)-1-hydroxyethyl)-4-methyl-7-oxo-1-azabicyclo[3.2.0]hept-2-ene-2-carboxylic acid] | 1 to 4 | 8 to 32 | < 1 | 1 to 4 | 8 to 32 | – | – | – | – | – | – | – | – | – | –
C[C@@H](O)[C@H]1C(=O)N2C(C(=O)O)=C(S[C@@H]3CCN(CCCN)C3)[C@H](C)[C@H]12 [Example 36, (4R,5S,6S)-3-(((R)-1-(3-aminopropyl)pyrrolidin-3-yl)thio)-6-((R)-1-hydroxyethyl)-4-methyl-7-oxo-1-azabicyclo[3.2.0]hept-2-ene-2-carboxylic acid] | – | > 32 | < 1 | 8 to 32 | 8 to 32 | > 32 | < 1 | 8 to 32 | 8 to 32 | 8 to 32 | 8 to 32 | > 32 | – | – | –
CNCCCCN1CC[C@@H](SC2=C(C(=O)O)N3C(=O)[C@H]([C@@H](C)O)[C@H]3[C@H]2C)C1 [Example 37, (4R,5S,6S)-6-((R)-1-hydroxyethyl)-4-methyl-3-(((R)-1-(4-(methylamino)butyl)pyrrolidin-3-yl)thio)-7-oxo-1-azabicyclo[3.2.0]hept-2-ene-2-carboxylic acid] | – | 8 to 32 | < 1 | 1 to 4 | 8 to 32 | 8 to 32 | < 1 | 1 to 4 | 1 to 4 | 8 to 32 | 1 to 4 | 8 to 32 | – | – | –
C[C@@H](O)[C@H]1C(=O)N2C(C(=O)O)=C(S[C@@H]3CCCN(CC4CCNCC4)C3)[C@H](C)[C@H]12 [Example 43, (4R,5S,6S)-6-((R)-1-hydroxyethyl)-4-methyl-7-oxo-3-(((R)-1-(piperidin-4-ylmethyl)piperidin-3-yl)thio)-1-azabicyclo[3.2.0]hept-2-ene-2-carboxylic acid] | – | – | – | – | – | 8 to 32 | < 1 | 8 to 32 | > 32 | 1 to 4 | – | > 32 | 1 to 4 | < 1 | 8 to 32
C[C@@H](O)[C@H]1C(=O)N2C(C(=O)O)=C(S[C@@H]3CCN(C[C@@H]4CNCCO4)C3)[C@H](C)[C@H]12 [Example 49, (4R,5S,6S)-6-((R)-1-hydroxyethyl)-4-methyl-3-(((R)-1-(((S)-morpholin-2-yl)methyl)pyrrolidin-3-yl)thio)-7-oxo-1-azabicyclo[3.2.0]hept-2-ene-2-carboxylic acid] | – | – | – | – | – | 8 to 32 | < 1 | 8 to 32 | 1 to 4 | 1 to 4 | – | 8 to 32 | 1 to 4 | < 1 | 1 to 4
C[C@@H](O)[C@H]1C(=O)N2C(C(=O)O)=C(S[C@@H]3CCN(C[C@H]4CNCCO4)C3)[C@H](C)[C@H]12 [Example 50, (4R,5S,6S)-6-((R)-1-hydroxyethyl)-4-methyl-3-(((R)-1-(((R)-morpholin-2-yl)methyl)pyrrolidin-3-yl)thio)-7-oxo-1-azabicyclo[3.2.0]hept-2-ene-2-carboxylic acid] | – | – | – | – | – | 1 to 4 | < 1 | 1 to 4 | 1 to 4 | 1 to 4 | – | 8 to 32 | 1 to 4 | < 1 | 1 to 4
C[C@@H](O)[C@H]1C(=O)N2C(C(=O)O)=C(S[C@@H]3CCN(C[C@H]4CCNC4)C3)[C@H](C)[C@H]12 [Example 51, (4R,5S,6S)-6-((R)-1-hydroxyethyl)-4-methyl-7-oxo-3-(((R)-1-(((S)-pyrrolidin-3-yl)methyl)pyrrolidin-3-yl)thio)-1-azabicyclo[3.2.0]hept-2-ene-2-carboxylic acid] | – | – | – | – | – | 1 to 4 | < 1 | 1 to 4 | 1 to 4 | 1 to 4 | – | 8 to 32 | 1 to 4 | < 1 | 1 to 4
C[C@@H](O)[C@H]1C(=O)N2C(C(=O)O)=C(S[C@@H]3CCN(C[C@@H]4CCNC4)C3)[C@H](C)[C@H]12 [Example 53, (4R,5S,6S)-6-((R)-1-hydroxyethyl)-4-methyl-7-oxo-3-(((R)-1-(((R)-pyrrolidin-3-yl)methyl)pyrrolidin-3-yl)thio)-1-azabicyclo[3.2.0]hept-2-ene-2-carboxylic acid] | – | – | – | – | – | 1 to 4 | < 1 | 1 to 4 | 1 to 4 | 1 to 4 | – | 8 to 32 | 1 to 4 | < 1 | 1 to 4
